Reference: US7378545B2, “Crystallization of amino acids using ultrasonic agitation” (Abbott Laboratories, priority 2002, dated 2008)

Legend:
Type in all cases: physicochemical
[1] = Effect of ultrasonification intensity on crystal size (22 L crystallizer, 24 kHz sonotrode)
Procedure: In order to verify the findings from Example 5, additional experiments were carried out in a 22 L double-jacket glass crystallizer equipped with a draft tube and a 200 mm marine type propeller (Ne=0.3). A custom-made sonotrode (24 kHz) was used along with a UIP250 sound generator. In this example, the exact sonification power was not determined, although it was estimated to be in the order of 25-50 W. The findings are illustrated in Table 7.

[2] = Parametric sensitivity of L-thyroxine crystallization, particle size (one liter glass crystallizer, no ultrasound)
Procedure: The following trials were conducted to test the effects of various parameters other than ultrasonification on the crystallization of L-thyroxine. These trials were performed in a one liter glass crystallizer equipped with three baffles and a 60 mm marine type propeller (Ne=0.4). While most trials were run with the standard solution given in Example 1, propanol concentration was varied in trials 5 and 6. The final temperature for all trials was 10° C.

[3] = Degradation of L-thyroxine in crystallization solution at elevated temperature; settings: concentrations above 10% not feasible
Procedure: Concentrations of L-thyroxine above 10% were not feasible due to degradation at above 65° C.

[4] = Effect of ultrasonification on crystallization, particle size by Aerosizer time-of-flight (2000 W, 20 kHz sonotrode)
Text: L-thyroxine crystals were obtained by batch-wise cooling crystallization of a standard solution of L-thyroxine.
To crystallize L-thyroxine, the standard solution of L-thyroxine was heated to a specified temperature, introduced into a crystallizer and cooled at a controlled rate. As the solution cooled and L-thyroxine crystallized, the solution was exposed to ultrasonification.
A sonotrode complete with generator and transducer capable of emitting an radial ultrasonic pressure wave at a 20 kHz frequency and 2000 W of power (UIP 2000 industrial processor with block sonotrode) was mounted in the crystallizer. The L-thyroxine solution was prepared and agitated at 20 RPM. The temperature was stabilized at 50° C., and the ultrasonic generator was turned on in continuous mode and at 100% amplitude. The cooling sequence was then initiated and the temperature of the solution was lowered at 0.5° C. per minute to a final set point of 10° C. The period of time that the ultrasound was applied to the solution as it was cooling to this set point was varied. For the first trial, a controlled crystallization was allowed to occur without any application of ultrasound to the product solution. For the second trial, the ultrasound remained on until a temperature of 30° C. was reached. At this point the ultrasound was turned off while the solution continued to cool to 10° C. When 10° C. was reached, the slurry was sampled and heated back up to 50° C. to redissolve the solid. The third trial proceeded in the same manner, but when the solution reached a temperature of 26° C., the ultrasound was turned off and the solution continued to cool to 10° C. The trials continued in this manner, changing the temperature at which the ultrasound was turned off by 4° C. each time until for the last trial, the solution was sonified throughout cooling. During this last trial, ultrasound was maintained at the cooling set point for a period of one hour, with samples being pulled at the half hour and one hour mark. This slurry was then transferred to a filter dryer for filtering, washing and drying. Once the product was dry, a sample was taken to determine the additional effects on particle size of the manufacturing process downstream of the crystallizer.
Particle size analysis for all samples was performed with an Aerosizer aerodynamic time-of-flight particle-sizing instrument.
Samples for all of the trials shown in the table above were taken from the crystallizer in the slurry form. A portion of these slurry samples was filtered, washed with ethanol and dried at ambient temperature. A reduction in particle size on a volume basis was apparent between trial 1, which underwent no sonification, and trials 2-7, which underwent various periods of ultrasound application. The magnitude of this reduction is roughly three fold.

[5] = Solubility of L-thyroxine in standard solution (cooling/redissolving, light probe)
Procedure: The solubility of L-thyroxine was determined by studying a standard solution of L-thyroxine.
The L-thyroxine solution was then transferred to a glass crystallizer and cooled until the L-thyroxine crystallized spontaneously. Then, the temperature of the solution was slowly raised until the crystallized L-thyroxine was redissolved. The crystallization status of the solution was determined using a light probe. The light probe was comprised of two parallel rods with a light source and a photocell. The light probe measured the amount of crystals in the solution by determining the change in the amount of light that was absorbed or scattered by the solution. In solutions with crystals, the photocells registered a weakened beam as compared to beams sent through clear solutions.
Data obtained from these experiments is plotted in FIG. 1. The solubility of L-thyroxine in the standard solution is given by black circles, interpolated by the solid line.
The temperature of saturation at standard conditions (4.84% w/w) was 42° C. […] A theoretical yield of 83% of L-thyroxine was calculated. […] At a concentration of 20% propanol or 4% sodium carbonate, the solubility of L-thyroxine at lower temperatures was not determined. Under these conditions, sodium carbonate co-precipitated with sodium L-thyroxine at around 10° C.

[6] = Effect of ultrasonification intensity on crystal size (one-liter flask in ultrasonic bath, ≈40 kHz); settings: for C.V. Coefficient of variation = (X86 − X14)/(2 * X50): unit assumed
Procedure: A one-liter round bottom glass flask was filled with the standard L-thyroxine solution and cooled under stirring. The flask was then immersed in an ultrasonic bath (Sonorex Super Bandelin DK102, ≈40 kHz) to study the influence of different sonification intensities on the size of L-thyroxine crystals. The frequency and power dissipated by the bath was measured using a hydrophone. As an additional parameter, the onset point of sonification and its duration was also varied.

[7] = Nucleation temperature / metastable zone during cooling of L-thyroxine solutions
Text: The extent of the metastable zone depends on the rate of cooling. The lower the cooling rate, the higher the temperature at which nucleation begins.

[8] = trial 1: ultrasound off, cooled 50 to 10° C. at 0.5° C. per minute
[9] = trial 2: ultrasound on at 50° C., off at 30° C.
[10] = trial 3: ultrasound on at 50° C., off at 26° C.
[11] = trial 4: ultrasound on at 50° C., off at 22° C.
[12] = trial 5: ultrasound on at 50° C., off at 18° C.
[13] = trial 6: ultrasound on at 50° C., off at 14° C.
[14] = trial 7: ultrasound on at 50° C., off at 10° C.
[15] = trial 3: 10% US switched on at 32.5° C. (1K above expected nucleation temperature)
[16] = trial 5: 50% US switched on at 32.5° C.
[17] = trial 6: 100% US (roughly 0.18 W/cm^2)
[18] = trial 7: 100% US switched on at 32.5° C.
[19] = trial 8: 100% US switched off immediately after nucleation

Compound: N[C@@H](Cc1cc(I)c(Oc2cc(I)c(O)c(I)c2)c(I)c1)C(=O)O [L-thyroxine]
- reduction of particle size ([1]; smallest ultrasound intensity versus no ultrasound): 50%
- Crystal size ([1]; trial 1: No Ultrasound): 28 μm
- Crystal size ([1]; trial 2: 10% Ultrasound): 15 μm
- Crystal size ([1]; trial 3: 100% Ultrasound): 14 μm
- Particle size ([2]; trial 1: cooling 20/10 K/h, 0.5 W/kg, dried 10 mbar 50° C.): 15 μm
- Particle size ([2]; trial 1: cooling 20/10 K/h, 0.5 W/kg, dried 1013 mbar 25° C. openly in lab): 30 μm
- Particle size ([2]; trial 2: cooling 20/10 K/h, 5 W/kg (stirrer rate increased 3x), dried 10 mbar 35° C.): 18 μm
- Particle size ([2]; trial 3: cooling 30 K/h, 0.5 W/kg, dried 10 mbar 35° C.): 19 μm
- Particle size ([2]; trial 4: cooling 30 K/h, 5 W/kg, dried 1013 mbar RT): 10 μm
- Particle size ([2]; trial 5: 20% propanol, cooling 30 K/h, 5 W/kg, dried 50 mbar 35° C.): <20 μm
- Particle size ([2]; trial 6: 10% propanol, cooling 30 K/h, 5 W/kg, dried 50 mbar 35° C.): >30 μm
- Particle size ([2]; trial 7: cooling 30 K/h, 0.5 W/kg, dried 1013 mbar RT, rinsed with 90/10 EtOH/water): 16 μm
- Particle size ([2]; trial 8: cooling 30 K/h, 5 W/kg, dried 50 mbar 35° C., rinsed with 90/10 EtOH/water): 11 μm
- Particle size ([2]; trial 9: cooling 30 K/h, 2 W/kg, dried 50 mbar 35° C., rinsed with 90/10 EtOH/water): 13 μm
- Particle size ([2]; trial 10: as above, 1 hour stirring at final temperature): 15 μm
- Particle size ([2]; trial 10: as above, 2 hour stirring at final temperature): 15 μm
- Particle size ([2]; trial 10: cooling 30 K/h, 0.5 W/kg, dried 50 mbar 35° C.): 15 μm
- temperature of degradation [3]: above 65 °C
- Mean Particle Size (Number) [4, 8]: 3 µm
- Mean Particle Size Volume [4, 8]: 20.8 µm
- Mean Particle Size (Number) [4, 9]: 2.4 µm
- Mean Particle Size Volume [4, 9]: 6.6 µm
- Mean Particle Size (Number) [4, 10]: 2.3 µm
- Mean Particle Size Volume [4, 10]: 5.4 µm
- Mean Particle Size (Number) [4, 11]: 2.5 µm
- Mean Particle Size Volume [4, 11]: 5.7 µm
- Mean Particle Size (Number) [4, 12]: 2.4 µm
- Mean Particle Size Volume [4, 12]: 5.3 µm
- Mean Particle Size (Number) [4, 13]: 2.4 µm
- Mean Particle Size Volume [4, 13]: 5.2 µm
- Mean Particle Size (Number) [4, 14]: 3.1 µm
- Mean Particle Size Volume [4, 14]: 6.1 µm
- reduction in particle size on a volume basis ([4]; trials 2-7 (ultrasound) versus trial 1 (no sonification)): roughly three fold
- effect of solution composition on solubility ([5]; higher sodium carbonate or propanol concentrations): the inverse effect is observed
- effect of solution composition on solubility ([5]; reduction of sodium carbonate or propanol content of the initial solution): reduces L-thyroxine solubility
- temperature of saturation ([5]; standard solution, 4.84% w/w L-thyroxine, 14.0% n-propanol, 2.85% sodium carbonate): 42 °C
- solubility ([5]; standard solution, end of the cooling curve, 10° C.): 0.78%
- Average Size ([6]; trial 1: 0% US intensity): 46 μm
- Undercooling ([6]; trial 1: 0% US intensity): 13.6 °C
- C.V. Coefficient of variation = (X86 − X14)/(2 * X50) ([6]; trial 1: 0% US intensity): 74%
- Average Size ([6]; trial 2: 10% US): 13 μm
- Undercooling ([6]; trial 2: 10% US): 12.1 °C
- C.V. Coefficient of variation = (X86 − X14)/(2 * X50) ([6]; trial 2: 10% US): 70%
- Average Size [6, 15]: 11 μm
- Undercooling [6, 15]: 12.8 °C
- C.V. Coefficient of variation = (X86 − X14)/(2 * X50) ([6]; trial 3: 10% US switched on at 32.5° C.): 84%
- Average Size ([6]; trial 4: 50% US): 13 μm
- Undercooling ([6]; trial 4: 50% US): 10.6 °C
- C.V. Coefficient of variation = (X86 − X14)/(2 * X50) ([6]; trial 4: 50% US): 65%
- Average Size [6, 16]: 11 μm
- Undercooling [6, 16]: 12.5 °C
- C.V. Coefficient of variation = (X86 − X14)/(2 * X50) [6, 16]: 69%
- Average Size [6, 17]: 11 μm
- Undercooling [6, 17]: 11.9 °C
- C.V. Coefficient of variation = (X86 − X14)/(2 * X50) ([6]; trial 6: 100% US): 61%
- Average Size [6, 18]: 11 μm
- Undercooling [6, 18]: 12.5 °C
- C.V. Coefficient of variation = (X86 − X14)/(2 * X50) [6, 18]: 62%
- Average Size [6, 19]: 22 μm
- Undercooling [6, 19]: 10.9 °C
- C.V. Coefficient of variation = (X86 − X14)/(2 * X50) [6, 19]: 74%
- metastable zone (range of supercooling) ([7]; aqueous solutions during cooling, depends on rate of cooling): 5-11 °C
- increase in the temperature at which solids appeared ([7]; plant scale, sonified crystallizations, cooling rate 0.5° C. per minute): 9-18 °C
- decrease in the metastable zone ([7]; sonified solution, cooling rate 0.17-0.5° C. per minute): 1-3 °C
- Nucleation Temperature ([7]; trial 1: ultrasound off): 25 °C
- Nucleation Temperature ([7]; trial 2: ultrasound on): 35 °C
- Nucleation Temperature ([7]; trial 3: ultrasound on): 38 °C
- Nucleation Temperature ([7]; trial 4: ultrasound on): 38 °C
- Nucleation Temperature ([7]; trial 5: ultrasound on): 34 °C
- Nucleation Temperature ([7]; trial 6: ultrasound on): 36 °C
- Nucleation Temperature ([7]; trial 7: ultrasound on): 34 °C

Compound: N[C@@H](Cc1cc(I)c(Oc2cc(I)c(O)c(I)c2)c(I)c1)C(=O)O.[Na] [sodium L-thyroxine]
- point of nucleation of the aqueous solution ([7]; in the absence of ultrasound): approximately 32 °C
